Biological target: Protein arginine N-methyltransferase 5 (Homo sapiens, UniProt O14744)
Assay: Revised Biochemical Assay
Procedure: Compounds of the invention may be tested for in vitro activity in the following assay: A histone H4 derived peptide is used as substrate (amino acid sequence: […]N H2). Full-length PRMT5 enzyme (NCBI Reference sequence NP_006100.2) was co-expressed with His6-MEP50 in insect cells and purified via Nickel immobilized metal affinity and gel filtration chromatography (the enzyme).The 6 μL reactions are run in Greiner brand black 384-well low volume assay plates. All reactions contained assay buffer (phosphate buffered saline, 0.01% (v/v) Tween-20, 0.01% (w/v) albumin from chicken egg white, 1 mM Dithiothreitol, 1 μM peptide substrate, 1 μM S-Adenosyl methionine, and 15 ng/reaction enzyme, with the enzyme being omitted from negative control reactions. Compounds were added in a volume of 100 nL from dilution series prepared in DMSO, positive and negative control reactions receiving the same volume DMSO without compound. The plates were sealed with adhesive seals and incubated for 4 hours at 37 degree Celsius. Reaction progress was measured using the Transcreener EPIGEN methyltransferase assay (BellBrook Labs, Madison, Wis.) as recommended by the manufacturer. To each reaction 2 μL detection mix were added, containing coupling enzymes, fluorescence polarisation tracer, and AMP antibody. […]

Sequence of Protein arginine N-methyltransferase 5 (O14744 whole entry): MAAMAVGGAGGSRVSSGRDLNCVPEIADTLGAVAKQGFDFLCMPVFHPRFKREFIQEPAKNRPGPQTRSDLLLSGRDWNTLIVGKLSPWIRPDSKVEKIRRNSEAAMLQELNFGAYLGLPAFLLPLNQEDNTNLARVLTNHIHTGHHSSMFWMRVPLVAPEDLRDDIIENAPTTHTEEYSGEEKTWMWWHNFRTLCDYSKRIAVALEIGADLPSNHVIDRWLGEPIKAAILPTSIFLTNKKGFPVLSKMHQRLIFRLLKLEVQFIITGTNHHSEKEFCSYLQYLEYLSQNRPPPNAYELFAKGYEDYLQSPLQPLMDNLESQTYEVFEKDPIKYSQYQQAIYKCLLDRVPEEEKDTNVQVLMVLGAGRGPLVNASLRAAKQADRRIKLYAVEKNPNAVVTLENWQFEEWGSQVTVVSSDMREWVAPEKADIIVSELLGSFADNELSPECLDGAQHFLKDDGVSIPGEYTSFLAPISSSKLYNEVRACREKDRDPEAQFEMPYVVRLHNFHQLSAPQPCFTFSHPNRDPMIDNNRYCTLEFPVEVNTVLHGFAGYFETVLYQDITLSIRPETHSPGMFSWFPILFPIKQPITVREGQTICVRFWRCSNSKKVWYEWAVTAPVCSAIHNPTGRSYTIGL

COC(=O)N1CCC(N(C)C(=O)c2ccc(C(=O)NC[C@@H](O)[C@@H]3Cc4ccccc4CN3)cc2)CC1 [US10494376, Example 20]
IC50: 11.7 µM
